Reference: PubChem BioAssay AID2060622 (Molecular Pharmacology Branch, DTP, NCI, 2025)

Tested on: 242566-281-R-J2-PDC complex spheroid viability
Assay: Anticancer human tumor 242566-281-R-J2-PDC patient-derived pancreatic carcinoma cell line growth inhibition [CLK]
Details: for IC50: curve of first compound; for viability, T/C: stronger effect = lower value; active = viability on the fitted dose curve at most 10% of control; inactive = the rest
Summary of the method: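 Patient-derived tumor cells grown as complex spheroids with HUVEC endothelial cells and mesenchymal stem cells, treated with drug combinations. Concentrations descend in half-log steps from near clinical Cmax, or from 10 microM if Cmax unknown.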

[1] = second compound 0.0316 µM, first compound 0.0316 µM
[2] = second compound 0.0316 µM, first compound 0.1 µM
[3] = second compound 0.0316 µM, first compound 0.316 µM
[4] = second compound 0.0316 µM, first compound 1 µM
[5] = second compound 0.0316 µM, first compound 3.16 µM
[6] = second compound 0.0316 µM, first compound 10 µM
[7] = second compound 0.1 µM, first compound 0.0316 µM
[8] = second compound 0.1 µM, first compound 0.1 µM
[9] = second compound 0.1 µM, first compound 0.316 µM
[10] = second compound 0.1 µM, first compound 1 µM
[11] = second compound 0.1 µM, first compound 3.16 µM
[12] = second compound 0.1 µM, first compound 10 µM
[13] = second compound 0.316 µM, first compound 0.0316 µM
[14] = second compound 0.316 µM, first compound 0.1 µM
[15] = second compound 0.316 µM, first compound 0.316 µM
[16] = second compound 0.316 µM, first compound 1 µM
[17] = second compound 0.316 µM, first compound 3.16 µM
[18] = second compound 0.316 µM, first compound 10 µM
[19] = second compound 1 µM, first compound 0.0316 µM
[20] = second compound 1 µM, first compound 0.1 µM
[21] = second compound 1 µM, first compound 0.316 µM
[22] = second compound 1 µM, first compound 1 µM
[23] = second compound 1 µM, first compound 3.16 µM
[24] = second compound 1 µM, first compound 10 µM
[25] = second compound 3.16 µM, first compound 0.0316 µM
[26] = second compound 3.16 µM, first compound 0.1 µM
[27] = second compound 3.16 µM, first compound 0.316 µM
[28] = second compound 3.16 µM, first compound 1 µM
[29] = second compound 3.16 µM, first compound 3.16 µM
[30] = second compound 3.16 µM, first compound 10 µM
[31] = second compound 10 µM, first compound 0.0316 µM
[32] = second compound 10 µM, first compound 0.1 µM
[33] = second compound 10 µM, first compound 0.316 µM
[34] = second compound 10 µM, first compound 1 µM
[35] = second compound 10 µM, first compound 3.16 µM
[36] = second compound 10 µM, first compound 10 µM
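Note: spheroids exposed to compounds for 7 days before readout.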
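Throughout, for viability, T/C: 100% = DMSO vehicle control wells.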

CC1COCCN1c1cc(C2(S(C)(=N)=O)CC2)nc(-c2ccnc3[nH]ccc23)n1 (centres undefined) + CNC(=O)c1ccc(Nc2nc(OC3CCCC3)c3c(-c4ccc5nc(C)oc5c4)c[nH]c3n2)c(OC)c1
0.192 µM: IC50 (second compound 3.16 µM)
> 10 µM: IC50 (second compound 0.0316 µM) | IC50 (second compound 0.1 µM)
inactive: viability, T/C [1] 89% | viability, T/C [2] 105% | viability, T/C [3] 117% | viability, T/C [4] 118% | viability, T/C [5] 92.2% | viability, T/C [6] 61% | viability, T/C [7] 84.7% | viability, T/C [8] 90.1% | viability, T/C [9] 91.6% | viability, T/C [10] 104% | viability, T/C [11] 93% | viability, T/C [12] 55.6% | viability, T/C [13] 76.8% | viability, T/C [14] 77.8% | viability, T/C [15] 80.3% | viability, T/C [16] 70.8% | viability, T/C [17] 71% | viability, T/C [18] 41.7% | viability, T/C [19] 73.9% | viability, T/C [20] 69.7% | viability, T/C [21] 55.1% | viability, T/C [22] 49.4% | viability, T/C [23] 34.3% | viability, T/C [24] 17.7% | viability, T/C [25] 55.2% | viability, T/C [26] 55.1% | viability, T/C [27] 46.9% | viability, T/C [28] 36.2% | viability, T/C [29] 24.6% | viability, T/C [30] 13.4% | viability, T/C [31] 52.5% | viability, T/C [32] 47.1% | viability, T/C [33] 43.8% | viability, T/C [34] 33.2% | viability, T/C [35] 22.1% | viability, T/C [36] 13.5%
0.0613 µM: IC50 (second compound 10 µM)
0.763 µM: IC50 (second compound 1 µM)
7.16 µM: IC50 (second compound 0.316 µM)

O=C(c1cc(Cc2n[nH]c(=O)c3ccccc23)ccc1F)N1CCN(C(=O)C2CC2)CC1 + CNC(=O)c1ccc(Nc2nc(OC3CCCC3)c3c(-c4ccc5nc(C)oc5c4)c[nH]c3n2)c(OC)c1
> 10 µM: IC50 (second compound 0.0316 µM) | IC50 (second compound 0.1 µM) | IC50 (second compound 0.316 µM) | IC50 (second compound 1 µM) | IC50 (second compound 3.16 µM) | IC50 (second compound 10 µM)
inactive: viability, T/C [1] 94.9% | viability, T/C [2] 110% | viability, T/C [3] 96.1% | viability, T/C [4] 115% | viability, T/C [5] 95.6% | viability, T/C [6] 81.9% | viability, T/C [7] 97.9% | viability, T/C [8] 98.4% | viability, T/C [9] 117% | viability, T/C [10] 98.4% | viability, T/C [11] 88.4% | viability, T/C [12] 70.3% | viability, T/C [13] 92.6% | viability, T/C [14] 83.6% | viability, T/C [15] 87.6% | viability, T/C [16] 92.7% | viability, T/C [17] 92% | viability, T/C [18] 65% | viability, T/C [19] 81.9% | viability, T/C [20] 57.1% | viability, T/C [21] 65.5% | viability, T/C [22] 69.8% | viability, T/C [23] 70.5% | viability, T/C [24] 55.3% | viability, T/C [25] 63% | viability, T/C [26] 60% | viability, T/C [27] 58.6% | viability, T/C [28] 51.7% | viability, T/C [29] 52.2% | viability, T/C [30] 56.2% | viability, T/C [31] 52.5% | viability, T/C [32] 52.2% | viability, T/C [33] 52.7% | viability, T/C [34] 52.5% | viability, T/C [35] 46% | viability, T/C [36] 57.6%
